Measurements: PubChem BioAssay (NCI)
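1) Cells in 96-well plates. 2) Compound, 48 h, 5 concentrations. 3) Linear interpolation between surrounding doses. 4) Unreached endpoint = highest concentration. Here, GI50 denotes the concentration required for 50% inhibition of growth. TGI marks complete inhibition of growth.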

Tests used:
Test in all cases: inhibition of tumour cell growth, NCI panel, 48 h
786-0 renal = tested on: 786-0 renal
A498 renal = tested on: A498 renal
A549 NSCLC = tested on: A549 NSCLC
ACHN renal = tested on: ACHN renal
BT-549 breast = tested on: BT-549 breast
CAKI-1 renal = tested on: CAKI-1 renal
CCRF-CEM leukemia = tested on: CCRF-CEM leukemia
COLO 205 colon = tested on: COLO 205 colon
DU-145 prostate = tested on: DU-145 prostate
EKVX NSCLC = tested on: EKVX NSCLC
HCC-2998 colon = tested on: HCC-2998 colon
HCT-116 colon = tested on: HCT-116 colon
HCT-15 colon = tested on: HCT-15 colon
HL-60(TB) leukemia = tested on: HL-60(TB) leukemia
HOP-62 NSCLC = tested on: HOP-62 NSCLC
HOP-92 NSCLC = tested on: HOP-92 NSCLC
HS 578T breast = tested on: HS 578T breast
HT29 colon = tested on: HT29 colon
IGROV1 ovarian = tested on: IGROV1 ovarian
K-562 leukemia = tested on: K-562 leukemia
KM12 colon = tested on: KM12 colon
LOX IMVI melanoma = tested on: LOX IMVI melanoma
M14 melanoma = tested on: M14 melanoma
MALME-3M melanoma = tested on: MALME-3M melanoma
MCF7 breast = tested on: MCF7 breast
MDA-MB-231 breast = tested on: MDA-MB-231 breast
MDA-MB-435 = tested on: MDA-MB-435
MDA-MB-468 breast = tested on: MDA-MB-468 breast
MOLT-4 leukemia = tested on: MOLT-4 leukemia
NCI-H226 lung = tested on: NCI-H226 lung
NCI-H23 lung = tested on: NCI-H23 lung
NCI-H460 lung = tested on: NCI-H460 lung
NCI-H522 lung = tested on: NCI-H522 lung
NCI/ADR-RES ovarian = tested on: NCI/ADR-RES ovarian
OVCAR-3 ovarian = tested on: OVCAR-3 ovarian
OVCAR-4 ovarian = tested on: OVCAR-4 ovarian
OVCAR-5 ovarian = tested on: OVCAR-5 ovarian
OVCAR-8 ovarian = tested on: OVCAR-8 ovarian
PC-3 prostate = tested on: PC-3 prostate
RPMI-8226 leukemia = tested on: RPMI-8226 leukemia
RXF 393 renal = tested on: RXF 393 renal
SF-268 CNS = tested on: SF-268 CNS
SF-295 CNS = tested on: SF-295 CNS
SF-539 CNS = tested on: SF-539 CNS
SK-MEL-2 melanoma = tested on: SK-MEL-2 melanoma
SK-MEL-28 melanoma = tested on: SK-MEL-28 melanoma
SK-MEL-5 melanoma = tested on: SK-MEL-5 melanoma
SK-OV-3 ovarian = tested on: SK-OV-3 ovarian
SN12C renal = tested on: SN12C renal
SNB-19 CNS = tested on: SNB-19 CNS
SR leukemia = tested on: SR leukemia
SW-620 colon = tested on: SW-620 colon
T-47D breast = tested on: T-47D breast
TK-10 renal = tested on: TK-10 renal
U251 CNS = tested on: U251 CNS
UACC-257 melanoma = tested on: UACC-257 melanoma
UACC-62 melanoma = tested on: UACC-62 melanoma
UO-31 renal = tested on: UO-31 renal

## COc1ccc2c3nc4cc(C)c(C)cc4nc3n(CCN(C)C)c2c1
786-0 renal
  GI50: 2.73 µM
  TGI: 10.5 µM
A498 renal
  GI50: 11 µM
  TGI: 25.6 µM
A549 NSCLC
  GI50: 1.34 µM
  TGI: 3.34 µM
ACHN renal
  GI50: 1.38 µM
  TGI: 4.19 µM
BT-549 breast
  GI50: 2.94 µM
  TGI: 16.4 µM
CAKI-1 renal
  GI50: 0.981 µM
  TGI: 6.65 µM
CCRF-CEM leukemia
  GI50: 3.47 µM
  TGI: 13.5 µM
COLO 205 colon
  GI50: 5.93 µM
  TGI: 20.8 µM
DU-145 prostate
  GI50: 2.74 µM
  TGI: 12 µM
EKVX NSCLC
  GI50: 3.34 µM
  TGI: 15.5 µM
HCC-2998 colon
  GI50: 1.31 µM
  TGI: 3.44 µM
HCT-116 colon
  GI50: 1.27 µM
  TGI: 2.74 µM
HCT-15 colon
  GI50: 1.31 µM
  TGI: 3.54 µM
HL-60(TB) leukemia
  GI50: 1.18 µM
  TGI: 2.95 µM
HOP-62 NSCLC
  GI50: 2.53 µM
  TGI: 13 µM
HOP-92 NSCLC
  GI50: 0.452 µM
  TGI: 6.02 µM
HS 578T breast
  GI50: 7.19 µM
  TGI: 32.5 µM
HT29 colon
  GI50: 3.02 µM
  TGI: 12.6 µM
IGROV1 ovarian
  GI50: 1.46 µM
  TGI: 13.3 µM
K-562 leukemia
  GI50: 1.44 µM
  TGI: 4.89 µM
KM12 colon
  GI50: 2.31 µM
  TGI: 11.4 µM
LOX IMVI melanoma
  GI50: 1.09 µM
  TGI: 2.28 µM
M14 melanoma
  GI50: 1.32 µM
  TGI: 2.95 µM
MALME-3M melanoma
  GI50: 1.45 µM
  TGI: 3.28 µM
MCF7 breast
  GI50: 1.02 µM
  TGI: 2.95 µM
MDA-MB-231 breast
  GI50: 1.79 µM
  TGI: 9.32 µM
MDA-MB-435
  GI50: 2.5 µM
  TGI: 11 µM
MDA-MB-468 breast
  GI50: 1.17 µM
  TGI: 3.18 µM
MOLT-4 leukemia
  GI50: 2.2 µM
  TGI: 7.29 µM
NCI-H226 lung
  GI50: 1.58 µM
  TGI: 3.81 µM
NCI-H23 lung
  GI50: 2.51 µM
  TGI: 11.5 µM
NCI-H460 lung
  GI50: 1.21 µM
  TGI: 3.2 µM
NCI-H522 lung
  GI50: 0.665 µM
  TGI: 7.87 µM
NCI/ADR-RES ovarian
  GI50: 2.28 µM
  TGI: 12 µM
OVCAR-3 ovarian
  GI50: 2.24 µM
  TGI: 5.23 µM
OVCAR-4 ovarian
  GI50: 2.82 µM
  TGI: 16.2 µM
OVCAR-5 ovarian
  GI50: 2.96 µM
  TGI: 12.6 µM
OVCAR-8 ovarian
  GI50: 1.43 µM
  TGI: 3.47 µM
PC-3 prostate
  GI50: 1.58 µM
  TGI: 12.9 µM
RPMI-8226 leukemia
  GI50: 1.81 µM
  TGI: 4.85 µM
RXF 393 renal
  GI50: 2.38 µM
  TGI: 9.71 µM
SF-268 CNS
  GI50: 3.41 µM
  TGI: 16.2 µM
SF-295 CNS
  GI50: 1.65 µM
  TGI: 5.55 µM
SF-539 CNS
  GI50: 1.49 µM
  TGI: 2.98 µM
SK-MEL-2 melanoma
  GI50: 3.88 µM
  TGI: 15.8 µM
SK-MEL-28 melanoma
  GI50: 3.23 µM
  TGI: 11.9 µM
SK-MEL-5 melanoma
  GI50: 1.5 µM
  TGI: 2.98 µM
SK-OV-3 ovarian
  GI50: 3.58 µM
  TGI: 16.2 µM
SN12C renal
  GI50: 1.54 µM
  TGI: 5.96 µM
SNB-19 CNS
  GI50: 3.42 µM
  TGI: 16.3 µM
SR leukemia
  GI50: 1.32 µM
  TGI: 5.33 µM
SW-620 colon
  GI50: 1.27 µM
  TGI: 8.47 µM
T-47D breast
  GI50: 1.78 µM
  TGI: 13.6 µM
TK-10 renal
  GI50: 6.87 µM
  TGI: 19 µM
U251 CNS
  GI50: 1.39 µM
  TGI: 3.89 µM
UACC-257 melanoma
  GI50: 3.97 µM
  TGI: 15.1 µM
UACC-62 melanoma
  GI50: 1.61 µM
  TGI: 5.2 µM
UO-31 renal
  GI50: 0.542 µM
  TGI: 7.76 µM
